In PubChem BioAssay AID248 (DTP/NCI, 2004):
Several values for one entry are separate records, joined by “and”; a condition that tells them apart may be missing. Equal entries are not always repeated. Toxic doses and inconclusive results are not listed.

System: L1210 leukemia ip in BDF1 mice, survival T/C
Assay: NCI In Vivo Anticancer Drug Screen. Data for tumor model L1210 Leukemia (intraperitoneal) in B6D2F1 (BDF1) mice
Conditions: endpoint: mean survival time, higher = longer survival
Outline: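 Value reflects the ratio of survival in compound-treated mice to survival in vehicle-treated controls, with both groups carrying the same transplanted tumor.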

With `Nc1nc(=S)c2ncn(C3OC(CO)C(O)C3O)c2[nH]1` (centres undefined) the T/C (dose: 0.09 mg/kg/injection, schedule: Q01DX Z (ip), vehicle: carboxymethylcellulose (CMC)) was 109 % of control, the T/C (dose: 0.18 mg/kg/injection, schedule: Q01DX Z (ip), vehicle: carboxymethylcellulose (CMC)) was 124 % of control and the T/C (dose: 0.25 mg/kg/injection, schedule: Q01DX015 (ip), vehicle: carboxymethylcellulose (CMC)) was 111 % of control and 115 % of control. For the same molecule, the T/C (dose: 0.25 mg/kg/injection, schedule: Q01DX015 (ip), vehicle: other) was 110 % of control, the T/C (dose: 0.37 mg/kg/injection, schedule: Q01DX Z (ip), vehicle: carboxymethylcellulose (CMC)) was 121 % of control and the T/C (dose: 0.4 mg/kg/injection, schedule: Q01DX009 (sc), vehicle: carboxymethylcellulose (CMC)) was 98 % of control. For the same molecule, the T/C (dose: 0.44 mg/kg/injection, schedule: Q01DX015 (ip), vehicle: carboxymethylcellulose (CMC)) was 113 % of control, the T/C (dose: 0.5 mg/kg/injection, schedule: Q01DX015 (ip), vehicle: carboxymethylcellulose (CMC)) was 123 % of control and the T/C (dose: 0.5 mg/kg/injection, schedule: Q01DX015 (ip), vehicle: other) was 123 % of control. The T/C (dose: 0.5 mg/kg/injection, schedule: Q01DX Z (ip), vehicle: carboxymethylcellulose (CMC)) was 151 % of control, the T/C (dose: 0.62 mg/kg/injection, schedule: Q01DX015 (oral), vehicle: carboxymethylcellulose (CMC)) was 112 % of control and the T/C (dose: 0.67 mg/kg/injection, schedule: Q01DX015 (ip), vehicle: carboxymethylcellulose (CMC)) was 113 % of control. For the same molecule, the T/C (dose: 0.8 mg/kg/injection, schedule: Q01DX009 (oral), vehicle: carboxymethylcellulose (CMC)) was 105 % of control, the T/C (dose: 0.8 mg/kg/injection, schedule: Q01DX009 (sc), vehicle: carboxymethylcellulose (CMC)) was 102 % of control and the T/C (dose: 1.0 mg/kg/injection, schedule: Q01DX015 (ip), vehicle: other) was 124 % of control. The T/C (dose: 1.0 mg/kg/injection, schedule: Q01DX Z (ip), vehicle: carboxymethylcellulose (CMC)) was 157 % of control, the T/C (dose: 1.25 mg/kg/injection, schedule: Q01DX015 (oral), vehicle: carboxymethylcellulose (CMC)) was 124 % of control and the T/C (dose: 1.56 mg/kg/injection, schedule: Q01DX009 (ip), vehicle: saline) was 152 % of control and 158 % of control. The T/C (dose: 1.8 mg/kg/injection, schedule: Q## X032 (ip), vehicle: carboxymethylcellulose (CMC)) was 120 % of control, the T/C (dose: 2.16 mg/kg/injection, schedule: Q01DX Z (ip), vehicle: carboxymethylcellulose (CMC)) was 152 % of control and the T/C (dose: 2.16 mg/kg/injection, schedule: Q01DX Z (oral), vehicle: carboxymethylcellulose (CMC)) was 114 % of control. The T/C (dose: 2.7 mg/kg/injection, schedule: Q02DX008 (ip), vehicle: carboxymethylcellulose (CMC)) was 152 % of control, the T/C (dose: 3.0 mg/kg/injection, schedule: Q01DX009 (ip), vehicle: saline) was 104 % of control and the T/C (dose: 3.0 mg/kg/injection, schedule: Q01DX Z (ip), vehicle: carboxymethylcellulose (CMC)) was 152 % of control. The T/C (dose: 4.0 mg/kg/injection, schedule: Q01DX015 (ip), vehicle: carboxymethylcellulose (CMC)) was 120 % of control, the T/C (dose: 4.0 mg/kg/injection, schedule: Q01DX Z (ip), vehicle: carboxymethylcellulose (CMC)) was 108 % of control and the T/C (dose: 4.0 mg/kg/injection, schedule: Q02DX008 (ip), vehicle: carboxymethylcellulose (CMC)) was 153 % of control. The T/C (dose: 4.2 mg/kg/injection, schedule: Q## X032 (ip), vehicle: carboxymethylcellulose (CMC)) was 123 % of control, the T/C (dose: 4.6 mg/kg/injection, schedule: Q01DX009 (ip), vehicle: saline) was 89 % of control and the T/C (dose: 5.5 mg/kg/injection, schedule: Q## X003 (ip), vehicle: carboxymethylcellulose (CMC)) was 156 % of control. The T/C (dose: 5.8 mg/kg/injection, schedule: Q02DX008 (ip), vehicle: carboxymethylcellulose (CMC)) was 156 % of control, the T/C (dose: 6.0 mg/kg/injection, schedule: Q01DX Z (ip), vehicle: carboxymethylcellulose (CMC)) was 122 % of control and the T/C (dose: 6.0 mg/kg/injection, schedule: Q01DX Z (oral), vehicle: carboxymethylcellulose (CMC)) was 150 % of control. The T/C (dose: 6.25 mg/kg/injection, schedule: Q01DX009 (ip), vehicle: saline) was 118 % of control, the T/C (dose: 6.4 mg/kg/injection, schedule: Q## X032 (ip), vehicle: carboxymethylcellulose (CMC)) was 154 % of control and the T/C (dose: 7.0 mg/kg/injection, schedule: Q01DX Z (ip), vehicle: carboxymethylcellulose (CMC)) was 116 % of control. The T/C (dose: 8.0 mg/kg/injection, schedule: Q01DX Z (ip), vehicle: carboxymethylcellulose (CMC)) was 110 % of control, the T/C (dose: 8.8 mg/kg/injection, schedule: Q02DX008 (ip), vehicle: carboxymethylcellulose (CMC)) was 150 % of control and the T/C (dose: 9.0 mg/kg/injection, schedule: Q01DX Z (ip), vehicle: saline) was 105 % of control and 108 % of control. The T/C (dose: 10.0 mg/kg/injection, schedule: Q01DX Z (oral), vehicle: carboxymethylcellulose (CMC)) was 119 % of control, the T/C (dose: 10.0 mg/kg/injection, schedule: Q## X004 (ip), vehicle: carboxymethylcellulose (CMC)) was 158 % of control and the T/C (dose: 12.5 mg/kg/injection, schedule: Q01DX009 (ip), vehicle: saline) was 108 % of control and 123 % of control. For the same molecule, the T/C (dose: 13.0 mg/kg/injection, schedule: Q01DX Z (ip), vehicle: saline) was 108 % of control and the T/C (dose: 13.0 mg/kg/injection, schedule: Q02DX008 (ip), vehicle: carboxymethylcellulose (CMC)) was 119 % of control.
